Source: PMC9101728, “Isolation and HPLC Quantitative Determination of 5α-Reductase Inhibitors from Tectona grandis L.f. Leaf Extract” (Molecules, 2022)
Values joined by “and” are separate entries in the source; they are usually repeats but may differ in a detail not shown here. Equal entries are not always repeated. Where two headings read alike, the source gives them in different places.

Tests used:
5α-reductase [1] = biological target: T1, 5α-reductase (Homo sapiens, UniProt P18405); assay: Enzymatic 5α-reductase inhibition assay (conversion of testosterone to DHT, LC-MS), crude enzyme from LNCaP cells; assay type: biochemical; set-up: adding 80 µL of homogenized crude enzyme (equivalent to 75 µg protein); host or cells: LNCaP cells, sonicated homogenate used as crude enzyme; details: for IC50: isolated compounds, LNCaP cell crude enzyme, mean ± SD of triplicate, read-out: IC50 against 5α-reductase (converted); for 5α-reductase inhibitory activity (in words): qualitative statement
T1 sequence (P18405 1-259): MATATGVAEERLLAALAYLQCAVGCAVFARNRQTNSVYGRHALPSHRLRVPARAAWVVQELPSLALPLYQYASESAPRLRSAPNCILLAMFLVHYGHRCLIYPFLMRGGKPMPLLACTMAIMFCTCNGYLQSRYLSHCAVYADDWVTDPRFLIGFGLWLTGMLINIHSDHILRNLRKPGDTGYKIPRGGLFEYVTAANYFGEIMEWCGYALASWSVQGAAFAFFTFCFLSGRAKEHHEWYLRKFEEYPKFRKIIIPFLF
Description: The steroid 5α-reductase inhibitory activity of samples on the conversion of testosterone to DHT was determined using LNCaP cell as a source of enzyme.
5α-reductase was prepared as a crude enzyme from the androgen-dependent LNCaP cells (ATCC® CRL-1740^TM) using the procedure as described by Fachrunniza et al., which was modified from Srivilai et al.. Briefly, the LNCaP cells were cultured in a 175 cm^2 culture flask at 37 °C under a 5% CO2 humidified atmosphere and cultured until reaching approximately 80% confluency. The medium was removed and the cells were rinsed with tris-HCl buffer solution, pH 7.4 (containing 10 mM Tris-HCl buffer; 50 mM KCl; 1 mM EDTA; 0.5 mM phenylmethanesulfonyl fluoride). The cells were then scraped off and centrifuged at 1900× g for 10 min. The cell pellets were collected and re-suspended in tris-HCl buffer solution pH 7.4 to a concentration of ≥9 × 10^7 cells/mL and the resultant cell pellets were kept in an ice bath and homogenized using a sonication probe. The total protein content in the homogenized crude enzyme was not less than 75 µg protein equivalent in this 5α-reductase inhibitory assay, which was measured using the Pierce bicinchoninic acid (BCA) protein assay (Pierce, Rockford, IL, USA).
The in vitro inhibitory activity of the samples against the conversion of testosterone to DHT by 5α-reductase was carried out according to the method described by Srivilai et al.. The DHT formation after the enzymatic reaction was determined using liquid chromatography mass spectrometry (LC-MS) to measure 5α-reductase activity. […] In the assay, the reaction was performed in U-shaped 96-deep-well plates covered by well-cap mats to create a solution that contained 10 µL of the tested sample dissolved in dimethyl sulfoxide (DMSO), 20 µL of testosterone (34.7 µM in propylene glycol and water), and 50 µL of β-nicotinamide adenine dinucleotide phosphate (NADPH, 1 mM in tris-HCl buffer pH 7.4). The enzymatic reaction was started by adding 80 µL of homogenized crude enzyme (equivalent to 75 µg protein), and the final volume was adjusted to 200 µL by adding 40 µL of tris-HCl buffer pH 7.4. The reaction was maintained in a water bath with a shaker at 37 °C for 60 min and then the reaction was stopped by adding 300 µL of hydroxylamine hydrochloride (HM) (10 mg/mL in 80% v/v ethanol). The solution was then incubated for another 60 min at 60 °C to completely derivatize all the DHT that was produced. After incubation, the solution was centrifuged at 1700× g for 10 min and the supernatant was collected for quantitated DHT production by LC-MS. Two control groups, C0 and C60, were prepared with all the solutions, including 10 µL of DMSO, but no test sample. Control group C0 was stopped (by adding HM) before the enzymatic incubation at 0 min, while the control group C60 continued with the enzymatic reaction and was stopped after 60 min of incubation. The DHT production was determined using LC-MS. The inhibition of tested sample was determined by measuring the area under the curve (AUC) of extracted ion chromatogram (EIC) of derivatized-DHT (m/z [M + H]^+, 306.2428) which was used to calculate the enzymatic reaction inhibition by the following Equation (1):(1) 5α-reductase inhibitory activity (%)= [1 −AUC of sample−AUC of C0/AUC of C60 −AUC of C0] ×100

5α-reductase [2] = biological target: T1, 5α-reductase; details: read-out: IC50 against 5α-reductase; positive controls; same assay system; cited from earlier work

Compound | IC50 (5α-reductase [1]) [µM] | 5α-reductase inhibitory activity (in words) (5α-reductase [1]) | IC50 (5α-reductase [2])
CC1=C(CC/C(C)=C/C(=O)O)[C@@]2(C)CCCC(C)(C)[C@@H]2CC1 [Compound 1, (+)-eperua-8,13-dien-15-oic acid] | 14.2 | potent 5α-reductase inhibitory activity | –
CC1=CC[C@H]2C(C)(C)CCC[C@]2(C)[C@H]1CC/C(C)=C/C(=O)O [Compound 2, (+)-eperua-7,13-dien-15-oic acid] | 14.6 | potent 5α-reductase inhibitory activity | –
C=C(C)[C@@H]1CC[C@]2(C)CC[C@]3(C)[C@H](CC[C@@H]4[C@@]5(C)CC[C@H](O)C(C)(C)[C@@H]5CC[C@]43C)[C@@H]12 [Compound 3, lupeol] | > 400 | weak inhibitory activity | –
CC(C)(C)NC(=O)[C@H]1CC[C@H]2[C@@H]3CC[C@H]4NC(=O)C=C[C@]4(C)[C@H]3CC[C@]12C [Finasteride] | – | – | 0.752 µM and 0.73 µM
